Test results as given in patent US8278296B2, “Manipulation of brain CDP-diacylglycerol and uses thereof” (priority 2006, dated 2012).
Entries after “also recorded” stand apart in the source; their conditions may differ.

Legend:
CDP-diacylglycerol = assay: [3H]CDP-diacylglycerol accumulation in rat brain slices; type: cell-based; conditions: for effect on CDP-diacylglycerol accumulation: rat cerebrocortical slices, 0.1-300 μM, other psychotropic compounds
[1] = test system: phosphoinositide-specific phospholipase C / PI metabolism; assay: Blockade of PI hydrolysis (neomycin, U73122) on antidepressant-induced CDP-DG, PI and IP responses in brain slices; type: cell-based, rat
rats = assay: Forced swim test; type: in vivo, rat; conditions: for effect of neomycin pretreatment on immobility-reducing effects of antidepressant drugs: imipramine, fluoxetine, maprotiline
Experimental: One group of rats was acclimated once in the swim chamber and subgroups of three animals each were administered indicated doses (corresponding to 0, 3, 10, and 30 mg/kg) of imipramine at 24, 3, and 1 h before behavioral testing (conventional regimen). The other group of rats from the same batch was acclimated twice at 48 and 24 h before the time of testing and subgroups were administered the same doses of imipramine at 3 and 1 h before behavioral testing. Animals in each group were then tested in the forced swim apparatus for 5 min and the immobility times determined. […] Each bar is the mean±SEM (n=6). […] Animals were prepared as in FIG. 14 for the modified regimen. […] Test drugs were administered at indicated doses 3 and 1 h before behavioral testing. […] Immobility response data for set one were analyzed by one-way ANOVA (response by dose) in order to determine if the drug by itself produced significant effects. Data for set two were analyzed by one-way ANOVA (response by group, where group comprised control, neomycin, drug, neomycin+drug), followed by posthoc Tukey tests. […] The forced swim test (FST) was applied with some modifications. Rats were transferred to the testing room between 9:00-10:00 AM and allowed at least an hour before being placed individually into translucent polypropylene cylinders (46 cm tall×25 cm in diameter) containing 27 cm depth of water maintained at 25° C. […] After 15 min in the water, the rats were removed, toweled, and allowed to dry in a warm environment before being returned to their home cage. This acclimation step was repeated after 24 h, with the exposure time reduced from 15 to 5 min. […] During the second acclimation exposure, the duration of immobility was recorded for each animal. […] To adjudge that a rat had become immobile, the animal had to float passively in the water in a slightly hunched, but upright position, making only minimal movements necessary to keep its head above the water (65-66). On the third day when animals were to undergo experimental assessment, saline or the indicated antidepressant agents were administered i.p. at 3 h and at 1 h before behavioral testing. The drugs were dissolved in distilled-deionized water and diluted in saline. Control subjects received 0.9% saline. […] Data were analyzed by one-way analysis of variance (ANOVA).

## O=C1CN=C(c2ccccc2)c2cc([N+](=O)[O-])ccc2N1 [nitrazepam]
CDP-diacylglycerol
  effect on CDP-diacylglycerol accumulation: No significant effects or concentration-related effects

## [Cl-].[Li+] [LiCl, lithium chloride]
CDP-diacylglycerol; 5 mM LiCl present or absent, fluoxetine or imipramine, frontal cortex or hippocampus, 60 min
  effect on antidepressant drug-induced [3H]CDP-diacylglycerol production: did not significantly enhance or inhibit; also recorded: did not significantly alter

## O=C(CCCN1CCC(O)(c2ccc(Cl)cc2)CC1)c1ccc(F)cc1 [haloperidol]
CDP-diacylglycerol
  effect on CDP-diacylglycerol accumulation: No significant effects or concentration-related effects

## CN1Cc2c(N)cccc2C(c2ccccc2)C1 (centres unmarked) [nomifensine]
CDP-diacylglycerol; rat hippocampal, prefrontal cortical and striatal slices, LiCl present, 90 min
  effect on [3H]CDP-diacylglycerol accumulation: significantly and dose-dependently enhanced

## CCN1CCCC1CNC(=O)c1cc(S(N)(=O)=O)ccc1OC (centres unmarked) [sulpiride]
CDP-diacylglycerol
  effect on CDP-diacylglycerol accumulation: No significant effects or concentration-related effects

## COc1ccc2c(c1)CC[C@@H]1[C@@H]2CC[C@]2(C)[C@@H](NCCCCCCN3C(=O)CCC3=O)CC[C@@H]12 [U73123]
[1]; inactive analog control, data not shown
  effect on CDP-DG or IP responses: without effect

## CN(C)CCCN1c2ccccc2Sc2ccc(Cl)cc21 [chloropromazine]
CDP-diacylglycerol
  effect on CDP-diacylglycerol accumulation: No significant effects or concentration-related effects

## CN1C(=O)CN=C(c2ccccc2)c2cc(Cl)ccc21 [diazepam]
CDP-diacylglycerol
  effect on CDP-diacylglycerol accumulation: No significant effects or concentration-related effects

## N[C@@H]1C[C@H]1c1ccccc1 (racemic) [tranylcypromine]
CDP-diacylglycerol; frontal cortex slices, MAOIs
  effect on CDP-DG accumulation: statistically significant but modest effects

## CCN(CC)CCCC(C)Nc1c2ccc(Cl)cc2nc2ccc(OC)cc12 (centres unmarked) [quinacrine]
CDP-diacylglycerol
  effect on CDP-diacylglycerol accumulation: No significant effects or concentration-related effects

## OCCN1CCN(CC/C=C2/c3ccccc3Sc3ccc(C(F)(F)F)cc32)CC1 [flupenthioxol]
CDP-diacylglycerol
  effect on CDP-diacylglycerol accumulation: No significant effects or concentration-related effects

## NO [hydroxylamine]
CDP-diacylglycerol
  effect on CDP-diacylglycerol accumulation: No significant effects or concentration-related effects

## O=C1NC(=O)C(c2ccccc2)(c2ccccc2)N1 [phenytoin]
CDP-diacylglycerol
  effect on CDP-diacylglycerol accumulation: No significant effects or concentration-related effects

## C#CCN(C)Cc1ccccc1 [pargyline]
CDP-diacylglycerol
  effect on CDP-diacylglycerol accumulation: No significant effects or concentration-related effects

## COc1ccc2c(c1)CC[C@@H]1[C@@H]2CC[C@]2(C)[C@@H](NCCCCCCN3C(=O)C=CC3=O)CC[C@@H]12 [U73122]
[1]; 100 μM fluoxetine or 300 μM imipramine, paroxetine, maprotiline, nomifensine, hippocampal or cortical slices
  inhibition of antidepressant-stimulated IP accumulation: completely blocked
[1]; 0.1 to 10 μM U73122, cortical or hippocampal slices
  inhibition of antidepressant drug effects on CDP-DG production: significantly reduced, but was unable to completely block; also recorded: only partially reduced
[1]; U73122 alone
  effect of inhibitor by itself on basal CDP-DG production: did not significantly alter; also recorded: no significant effect
  effect of inhibitor by itself on basal IP accumulation: did not significantly alter; also recorded: no significant effect
[1]; brain slices
  inhibition of SKF38393-induced IP accumulation: blocked

## neomycin
rats; iv 2 h prior to testing
  effect of neomycin on SKF38393-induced decrease of immobility times: blocked
  effect of neomycin pretreatment on immobility-reducing effects of antidepressant drugs: completely reversed
rats; iv 2 h prior to testing, listed as Neomycin
  effect of neomycin pretreatment on immobility-reducing effects of antidepressant drugs: abolished
rats; iv tail vein 2 h prior to testing
  effect of neomycin by itself on basal immobility times: did not significantly alter

## Fc1ccc([C@@H]2CCNC[C@H]2COc2ccc3c(c2)OCO3)cc1 [paroxetine]
[1]; compared with tricyclic agents
  sensitivity of drug effects to inhibition by U73122: more sensitive

## CN1[C@@H]2CC[C@H]1C[C@@H](OC(c1ccccc1)c1ccccc1)C2 [benztropine]
CDP-diacylglycerol
  effect on CDP-diacylglycerol accumulation: No significant effects or concentration-related effects

## C#CCN(C)[C@H](C)Cc1ccccc1 [selegiline]
CDP-diacylglycerol
  effect on CDP-diacylglycerol accumulation: No significant effects or concentration-related effects
